The source of these data is US9758529B2, “Fused dihydro-4H-pyrazolo[5,1-C][1,4]oxazinyl compounds and analogs for treating CNS disorders” (Sunovion Pharmaceuticals Inc., priority 2015, dated 2017).

Structures are written as SMILES.

The assay relates to mice. Put plainly: Neuropharmacological Assay (SmartCube). The conditions noted are these: i.p. 15 min before behavioral test; 3 doses, most efficacious dose(s) presented. In kind it is in vivo. The text has this:
Neurosci. […] As reported in Roberds, because psychiatric diseases generally result from disorders of cell-cell communication or circuitry, intact systems are useful in detecting improvement in disease-relevant endpoints. These endpoints are typically behavioral in nature, often requiring human observation and interpretation. To facilitate testing of multiple compounds for behavioral effects relevant to psychiatric disease, PsychoGenics, Inc. (Tarrytown, N.Y., “PGI”) developed SmartCube™, an automated system in which behaviors of compound-treated mice are captured by digital video and analyzed with computer algorithms. […] PGI Analytical Systems uses data from SmartCube™ to compare the behavioral signature of a test compound to a database of behavioral signatures obtained using a large set of diverse reference compounds. (The composition of the database as well as validation of the method is further described in Roberds). In this way, the neuropharmacological effects of a test compound can be predicted by similarity to major classes of compounds, such as antipsychotics, anxiolytics and antidepressants.
The SmartCube™ system produces an activity signature indicating the probability that the activity of the test compound at the administered dose matches a given class of neuropharmacological agents. (See, e.g., Roberds, FIGS. 2 and 3). The test compound is simultaneously compared against multiple classes of agents; thus, a separate probability is generated for each behavioral effect measured (e.g., anxiolytic activity, analgesic activity, etc.). In Table 2 and 2B, these probabilities are reported for each behavioral effect measured as follows:
where LOQ is the limit of quantification.
Provided compounds were dissolved in a mixture of Pharmasolve™ (N-methyl-2-pyrrolidone), polyethylene glycol and propylene glycol, and were injected i.p. 15 min. before the behavioral test. For each compound, injections were administered at 3 different doses. For each behavioral effect measured, results for the most efficacious dose(s) are presented.
On to `CN1CCOC[C@H]1[C@H]1OCCn2nc3ccccc3c21` (racemic) [Compound 47, (+/−)-(3S,4R)-3-((R)-3,4-dihydro-1H-[1,4]oxazino[4,3-b]indazol-1-yl)-4-methylmorpholin-4-ium chloride], for which the “AD: ADHD (probability of class match)” value is “+ (LOQ≦ + <5%)”, the “AG: analgesic (probability of class match)” value (“AG: analgesic” below) is on record as “++ (5%≦ ++ <25%)”, the “AX: anxiolytic (probability of class match)” value (shortened to “AX: anxiolytic”) is “++ (5%≦ ++ <25%)” and the “CE: cognitive enhancer (probability of class match)” value (from here on “CE: cognitive enhancer”) was “+ (LOQ≦ + <5%)”. Moreover, the “DP: anti-depressant (probability of class match)” value (“DP: anti-depressant” for short) was “+ (LOQ≦ + <5%)”, the “HA: hallucinogen (probability of class match)” value (from here on “HA: hallucinogen”) is on record as “+ (LOQ≦ + <5%)”, the “MS: mood stabilizer (probability of class match)” value (shortened to “MS: mood stabilizer”) is “+ (LOQ≦ + <5%)” and the “PS: anti-psychotic (probability of class match)” value (shortened to “PS: anti-psychotic”) is “+ (LOQ≦ + <5%)”. For the same compound, the “SD: sedative hypnotic (probability of class match)” value (from here on “SD: sedative hypnotic”) is reported as “+ (LOQ≦ + <5%)”, the “UN: uncharacterized CNS activity (probability of class match)” value (“UN: uncharacterized CNS activity” below) is reported as “+ (LOQ≦ + <5%)” and the “XG: anxiogenic (probability of class match)” value (from here on “XG: anxiogenic”) is on record as “+ (LOQ≦ + <5%)”.
On to `CN(CC1OCCn2nc3ccccc3c21)C1CCC1.Cl` (centres unmarked) [Compound 29, N-((3,4-dihydro-1H-[1,4]oxazino[4,3-b]indazol-1-yl)methyl)-N-methylcyclobutanaminium chloride], for which the “AD: ADHD (probability of class match)” value was “+ (LOQ≦ + <5%)”, the “AG: analgesic” value is “+ (LOQ≦ + <5%)”, the “AX: anxiolytic” value was “++ (5%≦ ++ <25%)” and the “CE: cognitive enhancer” value is “++ (5%≦ ++ <25%)”. For the same compound, the “DP: anti-depressant” value is reported as “+++ (25%≦ +++ <50%)”, the “HA: hallucinogen” value is reported as “++ (5%≦ ++ <25%)”, the “MS: mood stabilizer” value is on record as “+ (LOQ≦ + <5%)” and the “PS: anti-psychotic” value is given as “+ (LOQ≦ + <5%)”. The “SD: sedative hypnotic” value is “+ (LOQ≦ + <5%)”, the “UN: uncharacterized CNS activity” value is recorded as “+ (LOQ≦ + <5%)” and the “XG: anxiogenic” value is on record as “+ (LOQ≦ + <5%)”.
In the case of `Cl.c1ccc2c3n(nc2c1)CCOC3[C@H]1CCCNC1` (stereo partly drawn) [Compound 38, (3S)-3-(3,4-dihydro-1H-[1,4]oxazino[4,3-b]indazol-1-yl)piperidin-1-ium], the “AD: ADHD (probability of class match)” value is “+ (LOQ≦ + <5%)”, the “AG: analgesic” value is “++ (5%≦ ++ <25%)”, the “AX: anxiolytic” value was “++ (5%≦ ++ <25%)” and the “CE: cognitive enhancer” value is recorded as “+ (LOQ≦ + <5%)”. In addition, the “DP: anti-depressant” value is “+ (LOQ≦ + <5%)”, the “HA: hallucinogen” value is “+ (LOQ≦ + <5%)”, the “MS: mood stabilizer” value is “++ (5%≦ ++ <25%)” and the “PS: anti-psychotic” value is “++ (5%≦ ++ <25%)”. For the same compound, the “SD: sedative hypnotic” value is “+ (LOQ≦ + <5%)”, the “UN: uncharacterized CNS activity” value was “+ (LOQ≦ + <5%)” and the “XG: anxiogenic” value is recorded as “+ (LOQ≦ + <5%)”.
As to `C[C@H](N)[C@H]1OCCn2nc3ccccc3c21` (relative stereo) [Compound 33, (+/−)-rel-(R)-1-((S)-3,4-dihydro-1H-[1,4]oxazino[4,3-b]indazol-1-yl) ethanaminium chloride], the “AD: ADHD (probability of class match)” value is “++++ (50%≦ ++++)”, the “AG: analgesic” value was “++ (5%≦ ++ <25%)”, the “AX: anxiolytic” value is given as “++ (5%≦ ++ <25%)” and the “CE: cognitive enhancer” value is on record as “+ (LOQ≦ + <5%)”. The “DP: anti-depressant” value is “++ (5%≦ ++ <25%)”, the “HA: hallucinogen” value is given as “++ (5%≦ ++ <25%)”, the “MS: mood stabilizer” value was “+ (LOQ≦ + <5%)” and the “PS: anti-psychotic” value is on record as “+ (LOQ≦ + <5%)”. Besides, the “SD: sedative hypnotic” value was “+ (LOQ≦ + <5%)”, the “UN: uncharacterized CNS activity” value is listed as “+++ (25%≦ +++ <50%)” and the “XG: anxiogenic” value was “+ (LOQ≦ + <5%)”.
Regarding `CNC[C@@H]1OCCn2nc3ccccc3c21` [Compound 1, (S)-(3,4-dihydro-1H-[1,4]oxazino[4,3-b]indazol-1-yl)-N-methylmethanaminium chloride], the “AD: ADHD (probability of class match)” value is given as “+ (LOQ≦ + <5%)”, the “AG: analgesic” value is reported as “+ (LOQ≦ + <5%)”, the “AX: anxiolytic” value is “++ (5%≦ ++ <25%)” and the “CE: cognitive enhancer” value is listed as “+ (LOQ≦ + <5%)”. Further, the “DP: anti-depressant” value was “+ (LOQ≦ + <5%)”, the “HA: hallucinogen” value is “+ (LOQ≦ + <5%)”, the “MS: mood stabilizer” value is listed as “+ (LOQ≦ + <5%)” and the “PS: anti-psychotic” value is given as “+ (LOQ≦ + <5%)”. In addition, the “SD: sedative hypnotic” value is “+ (LOQ≦ + <5%)”, the “UN: uncharacterized CNS activity” value was “+ (LOQ≦ + <5%)” and the “XG: anxiogenic” value was “+ (LOQ≦ + <5%)”.
With `CC(C)N(C)CC1OCCn2nc3ccccc3c21.Cl` (centres unmarked) [Compound 27, N-((3,4-dihydro-1H-[1,4]oxazino[4,3-b]indazol-1-yl)methyl)-N-methylpropan-2-aminium chloride], the “AD: ADHD (probability of class match)” value is reported as “+ (LOQ≦ + <5%)”, the “AG: analgesic” value is listed as “++ (5%≦ ++ <25%)”, the “AX: anxiolytic” value is “+ (LOQ≦ + <5%)” and the “CE: cognitive enhancer” value is reported as “+ (LOQ≦ + <5%)”. The “DP: anti-depressant” value was “++++ (50%≦ ++++)”, the “HA: hallucinogen” value is reported as “+ (LOQ≦ + <5%)”, the “MS: mood stabilizer” value is “+ (LOQ≦ + <5%)” and the “PS: anti-psychotic” value was “+ (LOQ≦ + <5%)”. Moreover, the “SD: sedative hypnotic” value is “+ (LOQ≦ + <5%)”, the “UN: uncharacterized CNS activity” value is listed as “+ (LOQ≦ + <5%)” and the “XG: anxiogenic” value was “+ (LOQ≦ + <5%)”.
On to `CN(C)CC1OCCn2nc3ccsc3c21.Cl` (centres unmarked) [Compound 59, 1-(6,7-dihydro-9H-thieno[3′,2′:3,4]pyrazolo[5,1-c][1,4]oxazin-9-yl)-N,N-dimethylmethanaminium chloride], for which the “AD: ADHD (probability of class match)” value is listed as “+ (LOQ≦ + <5%)”, the “AG: analgesic” value is given as “++ (5%≦ ++ <25%)”, the “AX: anxiolytic” value is given as “++ (5%≦ ++ <25%)” and the “CE: cognitive enhancer” value was “++ (5%≦ ++ <25%)”. Besides, the “DP: anti-depressant” value is “++ (5%≦ ++ <25%)”, the “HA: hallucinogen” value was “+ (LOQ≦ + <5%)”, the “MS: mood stabilizer” value is on record as “+ (LOQ≦ + <5%)” and the “PS: anti-psychotic” value was “++ (5%≦ ++ <25%)”. The “SD: sedative hypnotic” value is recorded as “+ (LOQ≦ + <5%)”, the “UN: uncharacterized CNS activity” value is given as “+++ (25%≦ +++ <50%)” and the “XG: anxiogenic” value is given as “+ (LOQ≦ + <5%)”.
